From the supplement of paper PMC10883282

Columns and labels:
Test in all cases: relative viability vs DMSO control (72 h) (fraction); higher = more viable cells
[1] = tested on: RD-ES
Procedure, shortened: (§1)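 After seeding at densities set for 80–90% confluence in 384-well plates, sarcoma cell lines waited 24 h before 2.5 µl of serially diluted compound was added. Source plates held 10 mM down to 0.0002 mM. Plates were incubated 72 h at 37 °C with 5% CO2, with 0.1% DMSO vehicle and a 5 µM positive control, and relative viability was taken from ATPLite as percent growth averaged over up to triplicate wells, with 1 set as full and 0 as none.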

[2] = tested on: SYO-1
Procedure, shortened: as §1

[3] = tested on: SK-ES-1
Procedure, shortened: as §1

[4] = tested on: G401
Procedure, shortened: as §1

[5] = tested on: VA-ES-BJ
Procedure, shortened: as §1

[6] = tested on: KHOS-240S
Procedure, shortened: as §1

[7] = tested on: HT1080
Procedure, shortened: as §1

[8] = tested on: RD
Procedure, shortened: as §1

[9] = tested on: SW982
Procedure, shortened: as §1

[10] = tested on: SW1353
Procedure, shortened: as §1

[11] = tested on: SK-LMS-1
Procedure, shortened: as §1

[12] = tested on: MES-SA
Procedure, shortened: as §1

O=C(Nc1ccc(OC(F)(F)Cl)cc1)c1cnc(N2CC[C@@H](O)C2)c(-c2cc[nH]n2)c1 [Asciminib]
Conditions | relative viability
[1], 0.00017 µM | 0.944
[1], 0.00051 µM | 0.942
[1], 0.00152 µM | 0.927
[1], 0.00457 µM | 0.926
[1], 0.01372 µM | 0.908
[1], 0.04115 µM | 0.895
[1], 0.1235 µM | 0.915
[1], 0.3704 µM | 0.889
[1], 1.111 µM | 0.852
[1], 3.333 µM | 0.849
[1], 10 µM | 0.748
[2], 0.00017 µM | 0.92
[2], 0.00051 µM | 0.91
[2], 0.00152 µM | 0.919
[2], 0.00457 µM | 0.927
[2], 0.01372 µM | 0.904
[2], 0.04115 µM | 0.893
[2], 0.1235 µM | 0.866
[2], 0.3704 µM | 0.844
[2], 1.111 µM | 0.813
[2], 3.333 µM | 0.76
[2], 10 µM | 0.6731
[3], 0.00017 µM | 0.975
[3], 0.00051 µM | 0.999
[3], 0.00152 µM | 1
[3], 0.00457 µM | 1
[3], 0.01372 µM | 0.992
[3], 0.04115 µM | 1.01
[3], 0.1235 µM | 1.01
[3], 0.3704 µM | 1.02
[3], 1.111 µM | 0.995
[3], 3.333 µM | 0.906
[3], 10 µM | 0.814
[4], 0.00017 µM | 0.949
[4], 0.00051 µM | 0.921
[4], 0.00152 µM | 0.928
[4], 0.00457 µM | 0.967
[4], 0.01372 µM | 0.961
[4], 0.04115 µM | 0.981
[4], 0.1235 µM | 0.981
[4], 0.3704 µM | 0.99
[4], 1.111 µM | 0.9822
[4], 3.333 µM | 0.909
[4], 10 µM | 0.831
[5], 0.00017 µM | 0.998
[5], 0.00051 µM | 0.982
[5], 0.00152 µM | 0.995
[5], 0.00457 µM | 0.99
[5], 0.01372 µM | 0.999
[5], 0.04115 µM | 1.02
[5], 0.1235 µM | 1.02
[5], 0.3704 µM | 1.03
[5], 1.111 µM | 1.02
[5], 3.333 µM | 0.9997
[5], 10 µM | 0.9486
[6], 0.00017 µM | 1.04
[6], 0.00051 µM | 1.01
[6], 0.00152 µM | 1.02
[6], 0.00457 µM | 1.02
[6], 0.01372 µM | 1.03
[6], 0.04115 µM | 1.009
[6], 0.1235 µM | 0.9965
[6], 0.3704 µM | 1.04
[6], 1.111 µM | 1.03
[6], 3.333 µM | 0.977
[6], 10 µM | 0.632
[7], 0.00017 µM | 0.999
[7], 0.00051 µM | 1.06
[7], 0.00152 µM | 1
[7], 0.00457 µM | 0.999
[7], 0.01372 µM | 0.968
[7], 0.04115 µM | 1
[7], 0.1235 µM | 1.03
[7], 0.3704 µM | 1
[7], 1.111 µM | 0.998
[7], 3.333 µM | 0.978
[7], 10 µM | 0.916
[8], 0.00017 µM | 1.05
[8], 0.00051 µM | 1.049
[8], 0.00152 µM | 1.067
[8], 0.00457 µM | 1.08
[8], 0.01372 µM | 1.05
[8], 0.04115 µM | 1.092
[8], 0.1235 µM | 1.088
[8], 0.3704 µM | 1.11
[8], 1.111 µM | 1.04
[8], 3.333 µM | 1.07
[8], 10 µM | 0.984
[9], 0.00017 µM | 0.974
[9], 0.00051 µM | 0.978
[9], 0.00152 µM | 1
[9], 0.00457 µM | 0.975
[9], 0.01372 µM | 1.01
[9], 0.04115 µM | 1.01
[9], 0.1235 µM | 1.01
[9], 0.3704 µM | 1.04
[9], 1.111 µM | 1.05
[9], 3.333 µM | 1.01
[9], 10 µM | 0.858
[10], 0.00017 µM | 0.946
[10], 0.00051 µM | 0.958
[10], 0.00152 µM | 0.936
[10], 0.00457 µM | 0.9604
[10], 0.01372 µM | 1.04
[10], 0.04115 µM | 1.1
[10], 0.1235 µM | 1.1
[10], 0.3704 µM | 1.14
[10], 1.111 µM | 1.11
[10], 3.333 µM | 1.06
[10], 10 µM | 0.953
[11], 0.00017 µM | 0.928
[11], 0.00051 µM | 0.955
[11], 0.00152 µM | 0.972
[11], 0.00457 µM | 0.97
[11], 0.01372 µM | 1.06
[11], 0.04115 µM | 1.02
[11], 0.1235 µM | 1
[11], 0.3704 µM | 1.05
[11], 1.111 µM | 1.04
[11], 3.333 µM | 0.773
[11], 10 µM | 0.565
[12], 0.00017 µM | 0.88
[12], 0.00051 µM | 0.902
[12], 0.00152 µM | 0.864
[12], 0.00457 µM | 0.898
[12], 0.01372 µM | 0.9132
[12], 0.04115 µM | 0.9229
[12], 0.1235 µM | 0.914
[12], 0.3704 µM | 0.951
[12], 1.111 µM | 0.908
[12], 3.333 µM | 0.829
[12], 10 µM | 0.577

CNC(=O)c1ccccc1Sc1ccc2c(/C=C/c3ccccn3)n[nH]c2c1 [Axitinib]
Conditions | relative viability
[1], 0.00017 µM | 0.962
[1], 0.00051 µM | 0.92
[1], 0.00152 µM | 0.938
[1], 0.00457 µM | 0.947
[1], 0.01372 µM | 0.94
[1], 0.04115 µM | 0.963
[1], 0.1235 µM | 0.938
[1], 0.3704 µM | 0.871
[1], 1.111 µM | 0.85
[1], 3.333 µM | 0.729
[1], 10 µM | 0.0832
[2], 0.00017 µM | 1
[2], 0.00051 µM | 0.973
[2], 0.00152 µM | 0.9673
[2], 0.00457 µM | 0.913
[2], 0.01372 µM | 0.841
[2], 0.04115 µM | 0.742
[2], 0.1235 µM | 0.662
[2], 0.3704 µM | 0.485
[2], 1.111 µM | 0.422
[2], 3.333 µM | 0.141
[2], 10 µM | 0.0669
[3], 0.00017 µM | 0.9896
[3], 0.00051 µM | 1.06
[3], 0.00152 µM | 1.03
[3], 0.00457 µM | 1.02
[3], 0.01372 µM | 1.01
[3], 0.04115 µM | 0.969
[3], 0.1235 µM | 0.943
[3], 0.3704 µM | 0.829
[3], 1.111 µM | 0.837
[3], 3.333 µM | 0.499
[3], 10 µM | 0.0154
[4], 0.00017 µM | 1.04
[4], 0.00051 µM | 1.04
[4], 0.00152 µM | 1.02
[4], 0.00457 µM | 1.01
[4], 0.01372 µM | 0.979
[4], 0.04115 µM | 0.963
[4], 0.1235 µM | 0.942
[4], 0.3704 µM | 0.854
[4], 1.111 µM | 0.806
[4], 3.333 µM | 0.456
[4], 10 µM | 0.0633
[5], 0.00017 µM | 1.11
[5], 0.00051 µM | 1.097
[5], 0.00152 µM | 1.11
[5], 0.00457 µM | 1.12
[5], 0.01372 µM | 1.09
[5], 0.04115 µM | 1.08
[5], 0.1235 µM | 1.05
[5], 0.3704 µM | 0.9867
[5], 1.111 µM | 0.977
[5], 3.333 µM | 0.61
[5], 10 µM | 0.263
[6], 0.00017 µM | 1.05
[6], 0.00051 µM | 1.02
[6], 0.00152 µM | 1.04
[6], 0.00457 µM | 1.05
[6], 0.01372 µM | 1.02
[6], 0.04115 µM | 1.01
[6], 0.1235 µM | 0.964
[6], 0.3704 µM | 0.802
[6], 1.111 µM | 0.791
[6], 3.333 µM | 0.495
[6], 10 µM | 0.214
[7], 0.00017 µM | 1.1
[7], 0.00051 µM | 1.06
[7], 0.00152 µM | 1.1
[7], 0.00457 µM | 1.1
[7], 0.01372 µM | 1.13
[7], 0.04115 µM | 1.11
[7], 0.1235 µM | 1.08
[7], 0.3704 µM | 1
[7], 1.111 µM | 1.04
[7], 3.333 µM | 0.979
[7], 10 µM | 0.388
[8], 0.00017 µM | 0.981
[8], 0.00051 µM | 0.977
[8], 0.00152 µM | 1
[8], 0.00457 µM | 1.01
[8], 0.01372 µM | 1.01
[8], 0.04115 µM | 0.98
[8], 0.1235 µM | 0.984
[8], 0.3704 µM | 0.892
[8], 1.111 µM | 0.874
[8], 3.333 µM | 0.465
[8], 10 µM | 0.183
[9], 0.00017 µM | 0.998
[9], 0.00051 µM | 0.997
[9], 0.00152 µM | 1
[9], 0.00457 µM | 1.02
[9], 0.01372 µM | 0.991
[9], 0.04115 µM | 1.015
[9], 0.1235 µM | 0.9984
[9], 0.3704 µM | 0.96
[9], 1.111 µM | 0.922
[9], 3.333 µM | 0.409
[9], 10 µM | 0.0993
[10], 0.00017 µM | 1.09
[10], 0.00051 µM | 1.1
[10], 0.00152 µM | 1.05
[10], 0.00457 µM | 1.04
[10], 0.01372 µM | 1.04
[10], 0.04115 µM | 1.01
[10], 0.1235 µM | 1.02
[10], 0.3704 µM | 0.908
[10], 1.111 µM | 0.94
[10], 3.333 µM | 0.789
[10], 10 µM | 0.288
[11], 0.00017 µM | 1.11
[11], 0.00051 µM | 1.14
[11], 0.00152 µM | 1.12
[11], 0.00457 µM | 1.09
[11], 0.01372 µM | 1.1
[11], 0.04115 µM | 1.09
[11], 0.1235 µM | 1.17
[11], 0.3704 µM | 1.17
[11], 1.111 µM | 1.18
[11], 3.333 µM | 1.13
[11], 10 µM | 0.55
[12], 0.00017 µM | 0.995
[12], 0.00051 µM | 0.9681
[12], 0.00152 µM | 0.978
[12], 0.00457 µM | 0.977
[12], 0.01372 µM | 0.967
[12], 0.04115 µM | 0.949
[12], 0.1235 µM | 0.951
[12], 0.3704 µM | 0.785
[12], 1.111 µM | 0.825
[12], 3.333 µM | 0.257
[12], 10 µM | 0.056
